Tests used:
[1] = system: human RCC A498 cell line; test: Proliferation / viability of human RCC A498 cell line; assay type: cell-based; details: for reduction in viability / suppression: 70 nM, 48 hours, human RCC A498; for SAR analysis: relative activity: RCC cell lines, substitution on C-4 phenyl ring
Description: (§1) A 50 microliter volume of cells was taken from the culture medium and combined with an equal volume of 0.4% Trypan blue stain. Then, 10 microliters of this 1:1 mixture was pipetted onto a slide and placed into a hemocytometer for cell counting. The viable cell count was used for measuring cell proliferation in the sample.
To further expand the structure activity relationship (SAR), six additional AZP derivatives were synthesized: AR-02, AR-03, AR-038, AR-051, AR-061 and AR-065, with different substituents on the C-4 phenyl ring (FIG. 1). Having validated that exemplary AZP compounds show efficacy in our murine-derived RCC line, it was sought to determine if this finding could be relevant in human RCC line, A498. Exemplary compound NSC750212 and newly synthesized analogues were tested in A498 cell line (FIG. 3).

[2] = system: human MYC-driven Burkitt Lymphoma line P493 xenografts; test: Human lymphoma P493 xenograft in NSG mice; assay type: in vivo; details: intratumoral treatment for a week, vs DMSO control
[3] = system: monoglycerols; test: DESI-MSI of monoglycerols in treated RCC; assay type: in vivo, mouse; details: primary MYC-driven RCC, upon termination of treatment
Description: DESI-MSI functions by directing a pneumatically assisted solvent electrospray onto the surface of interest (Takats, Wiseman, Gologan, & Cooks, 2004). The electrosprayed solvent droplets dissolve certain chemical constituents off the surface investigated and also induce the formation of secondary charged-droplets that take off from the surface. These secondary droplets already contain constituents of the sample and produce molecular ions of the analytes upon evaporation in the atmospheric pressure interface of the mass spectrometer. This way, electrospray-like mass spectrometric information is obtained on the sample, featuring multiply charged ions and solvent adducts among other electrospray-specific spectral features.
Though we expected a complete depletion of metabolism upon tubulin inhibition by NSC750212, our DESI-MSI analyses uncover a more interesting mechanism. […] Monoglycerol metabolism has been implicated in cancer, due to the high need of cancer cells of energy and building blocks. […] As described herein, DESI-MSI is a valuable tool for use in uncovering the mechanism of action of exemplary azapodophyllotoxin derivatives.

[4] = system: CCRF (T lymphoblast); test: Proliferation of lymphoma line CCRF; assay type: cell-based, human
Description: (§2) Human T-cell acute lymphoblastic leukemias CCRF, DND-41, KOPT-K1, human B-cell Burkitt's lymphoma P493-6, and murine lymphoma 6780 were used in this study. Human and mouse lymphomas were all maintained in RPMI supplemented with 10% (vol/vol) FBS, 1% glutamine, 1% sodium pyruvate, 1% non-essential amino acids, and Antibiotic-Antimycotic. All cell culture reagents used were obtained from Gibco (Thermo Fisher Scientific Inc.).
as §1
(§3) Activity of exemplary compounds against lymphomas was also investigated. […] FIG. 4 illustrates proliferative responses of various human lymphoma lines, from left to right: CCRF, DND-41, KOPR, and MYC-driven lymphoma lines P493 and 6780, at doses of 70 nM, 140 nM, and 280 nM vs a control (DMSO). […] KOPT and P-493 still show a significant but much less suppression, at roughly 85%. At 140 nM, CCRF and 6780 show an increase in suppression at roughly 92% and 94%, respectively.

[5] = system: tubulin; test: Nano-fluidic proteomic immunoassay (NIA) of tubulin in treated tumors; assay type: in vivo, human
Experimental: NIA was performed using the ProteinSimple Nanopro 1000 machine. The final protein concentration loaded into each nano-fluidic capillary of the machine was 0.1 ug/uL. The primary antibody for Tubulin (Cell Signaling Technologies) was diluted 1:100. The primary antibody for HSP70 (Santa Cruz Biosciences) was diluted 1:500. The secondary anti-rabbit and anti-mouse HRP-conjugates were both diluted 1:100. Chemiluminescence signal was recorded after the addition of the detection reagent, which consists of a 1:1 ratio of luminol and peroxide. Analysis of the chemiluminescence data from NIA was performed via the ProteinSimple Compass software.
Fine needle aspirations (FNAs) are defined to be biopsies performed via the aspiration of the tumor using a needle of […] or smaller. Core biopsies are any biopsies done using a needle larger than […]. Techniques for performing FNAs and core biopsies are similar. The needle tip is plunged into the tumor and retracted, in a fast and repetitive motion, while applying suction at the needle tip. […]
To investigate if this mechanism is consistent in vivo, we used the Nano ImmunoAssay to analyze core biopsies and fine needle aspirates (FNA) of tumors during the course of treatment with NSC750212. […] There are no other charged isoforms of tubulin detected by NIA (FIG. 7, panel D).

[6] = system: human B-cell Burkitt's lymphoma P493-6; test: Proliferation of MYC-driven lymphoma line P493-6; assay type: cell-based; details: P-493
Description: as §2, §1, §3

[7] = system: bovine tubulin; test: Tubulin Polymerization Assay (EMD Millipore); assay type: biochemical; details: compared to positive control Nocodazole and negative control Paclitaxel
Experimental: The Tubulin Polymerization Assay (EMD Millipore) was used to confer the mechanism of azapodophyllotoxin derivatives. The polymerization reaction was conducted in a 96-well plate. Paclitaxel was used as the non-tubulin-inhibiting negative control, and Nocodazole was used as the tubulin-inhibiting positive control. First, a solution of 99% pure bovine tubulin stock solution in 1× polymerization buffer (PB) containing 1 mM GTP was made. Second, a 1:9 mixture of each drug and control with PB-GTP solution was also prepared. In each well, 60 microliters of the first solution (99% tubulin solution in 1×PB and 1 mM GTP) was combined with 60 microliters of one of each of the prepared 1:9 drug to PB-GTP solutions. All solutions were prepared on ice prior to combining and placement into the spectrophotometer. Tubulin assembly was measured through turbidity variation (light scattering) in the spectrophotometer every 30 seconds at 350 nm (with shaking in between each reading) over the course of 90 minutes.
Given the structure of NSC750212 and computational docking studies of Azapodophyllotoxins in general, it has been stipulated that they may target tubulins. Using EMD Millipore Tubulin Polymerization Assay, NSC750212 was compared to a negative control, Paclitaxel, and a positive control, Nocodazole, to determine whether its mechanism is via the inhibition of tubulin polymerization.

[8] = system: DND-41 (child T lymphoblastic leukemia); test: Proliferation of lymphoma line DND-41; assay type: cell-based, human
Description: as §2, §1, §3

[9] = system: human RCC A498 xenografts; test: Human RCC A498 xenograft in NSG mice; assay type: in vivo; details: intratumoral treatment for a week, vs DMSO control
[10] = system: KOPT-K1 (human T-ALL); test: Proliferation of lymphoma line KOPT-K1; assay type: cell-based
Description: as §2, §1, §3

[11] = system: murine RCC E28 cells; test: Proliferation of murine RCC E28 cells (viable cell count); assay type: cell-based; details: for sensitivity of MYC-driven RCC line to compound: 140 nM and 70 nM
Description: In addition, murine renal cell carcinoma E28 cell line was used in this study. These cells were maintained in DMEM supplemented with 10% (vol/vol) FBS, 1% glutamine, 1% sodium pyruvate, 1% non-essential amino acids, and Antibiotic-Antimycotic.
as §1
Activity of compounds NSC750212, NSC750719, NSC750722, and NSC756089 (see, FIG. 1) was investigated on a MYC-driven RCC line derived from a transgenic mouse model using low dose ranges of 280 nM, 140 nM, and 70 nM. […] FIG. 2, illustrates the results of treatment of murine RCC E28 cells with, from left to right: DMSO and corresponding AZP derivatives at concentrations of 70 nM, 140 nM and 280 nM. Even at 70 nM, NSC750212 causes about 90% reduction of cell proliferation compared to the vehicle control (DMSO).

[12] = system: murine lymphoma 6780; test: Proliferation of MYC-driven lymphoma line 6780; assay type: cell-based
Description: as §2, §1, §3

O=C1OCC2=C1C(c1cccc(Br)c1)c1cc3c(cc1N2CCO)CCC3 (centres unmarked) [AR-038]
reduction in viability / suppression [1]: 90%
SAR analysis: relative activity [1]: promising activity

COc1cc(C2C3=C(COC3=O)N(CCO)c3cc4c(cc32)CCC4)cc(OC)c1OC (centres unmarked) [NSC750212]
tumor burden [2]: significant reduction in tumor burden
levels of monoglycerols compared to untreated RCC [3]: elevated levels of monoglycerols
reduction in proliferation ([4]; 70 nM, vs control (DMSO)): ~90%
suppression of proliferation ([4]; 140 nM): roughly 92%
suppression of proliferation ([4]; 280 nM): about 96%
dose response ([4]; 70, 140, 280 nM): dose-dependent response
lowered levels of tubulin expression vs control ([5]; core biopsy of tumor during treatment): at least two-fold
lowered levels of tubulin expression vs control ([5]; fine needle aspirate (FNA) of tumor during treatment): at least two-fold
suppression of proliferation ([6]; 70 nM): roughly 85%
reduction in proliferation ([6]; 140 nM): over 90%
suppression of proliferation ([6]; 280 nM): ~98%
dose response ([6]; 70, 140, 280 nM): dose-dependent response
inhibition of tubulin polymerization (turbidity at 350 nm over 90 minutes) [7]: more efficacious than Nocodazole
maximal dose (maximally effective dose) [8]: 70 nM
reduction in proliferation ([8]; 70 nM): ~95%
change in suppression vs 70 nM ([8]; 140 nM): no dose response
tumor burden [9]: significant reduction in tumor burden
suppression of proliferation ([10]; 70 nM): roughly 85%
suppression of proliferation ([10]; 140 nM): roughly 87%
reduction of proliferation ([10]; 280 nM): roughly 89%
dose response ([10]; 70, 140, 280 nM): dose-dependent response
reduction of cell proliferation compared to the vehicle control (DMSO) ([11]; 70 nM, 48 hours): about 90%
suppression of proliferation when compared to 70 nM ([11]; 140 nM, 48 hours): two-fold
sensitivity of MYC-driven RCC line to compound ([11]; 280 nM): very high sensitivity
efficacy at higher concentration than 140 nM ([11]; 280 nM, 48 hours): no further efficacy
reduction in proliferation ([12]; 70 nM): ~90%
suppression of proliferation ([12]; 140 nM): ~94%
suppression of proliferation ([12]; 280 nM): maximal suppression
dose response ([12]; 70, 140, 280 nM): dose-dependent response
reduction in viability / suppression [1]: 95%
SAR analysis: relative activity [1]: most active

COc1cccc(C2C3=C(COC3=O)N(CCO)c3cc4c(cc32)CCC4)c1 (centres unmarked) [NSC750719]
sensitivity of MYC-driven RCC line to compound ([11]; 280 nM): very high sensitivity

COc1cccc(C2C3=C(COC3=O)N(CCO)c3cc4c(cc32)OCCO4)c1 (centres unmarked) [NSC750722]
sensitivity of MYC-driven RCC line to compound ([11]; 280 nM): very high sensitivity

— patent US20230003715A1, “AZAPODOPHYLLOTOXIN DERIVATIVES AND METHODS OF TREATING LYMPHOMA AND KIDNEY CANCER” (The Board of Trustees of the Leland Stanford Junior …, priority 2019, published 2023)
